According to patent publication EP0966972B1, “Topical composition containing silicon gum” (Dow Corning France S.A., priority 1998, dated 1999):

Test: Substantivity of silicone gum formulation on skin (FT-IR/ATR)
Assay type: in vivo, human
Conditions: 10 seconds after spraying
Protocol: The forearms of volunteers were cleaned and then sprayed in several areas with the formulation of Example 4. […] A FT-IR/ATR cell was used to take an IR spectrum at each area sprayed. […] An IR of the cleansed forearm skin was used as a control blank. The percentage of silicone remaining on the skin was calculated by comparing the height of the specific silicon peak height (1255 cm^-1)/ specific skin peak height (1538 cm^-1) in the blank test.

## C[Si](C)(C)O[Si](C)(C)C [HMDS, hexamethyldisiloxane]
  detectability on the skin: not detectable
